This note sets out measurements from patent US8304447B2, “2-acylaminopropoanol-type glucosylceramide synthase inhibitors” (Genzyme Corporation, priority 2007, dated 2012).

The subject of the first experiment is GM3. The experiment can be described thus: GM3 Elisa assay. The experiment is classed as cell-based. As to conditions: 48 h, Table 1; B16-FO cells, 2 days incubation; read-out: IC50_uM_Mean. An outline of the steps: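 Murine B16-FO melanoma cells attached 6 h on collagen, then exposed to compounds for 2 days at 37 °C. After formaldehyde fixation, cell-surface GM3 (NeuAc) was detected by anti-GM3 IgM and peroxidase anti-mouse IgM with Quantablu fluorescence (Ex 325/Em 420).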
As to `CCOc1ccc(C(=O)CCC(=O)N[C@H](CN2CCCC2)[C@H](O)c2ccc3c(c2)OCCO3)cc1` [Compound 127, N-((1R,2R)-1-(2,3-dihydrobenzo[b][1,4]dioxin-6-yl)-1-hydroxy-3-(pyrrolidin-1-yl)propan-2-yl)-4-(4-ethoxyphenyl)-4-oxobutanamide], the IC50 was in the range of 0.1 to 1 µM.

`Cc1cccc(CC(=O)N[C@H](CN2CCCC2)[C@H](O)c2ccc3c(c2)OCCO3)c1` [Compound 36, N-((1R,2R)-1-(2,3-dihydrobenzo[b][1,4]dioxin-6-yl)-1-hydroxy-3-(pyrrolidin-1-yl)propan-2-yl)-2-m-tolylacetamide]: the IC50 was in the range of 0.1 to 1 µM.

Turning to `O=C(Cc1ccc(-c2cccnc2)cc1)N[C@H](CN1CCCC1)[C@H](O)c1ccc2c(c1)OCCO2` [Compound 47, N-((1R,2R)-1-(2,3-dihydrobenzo[β][1,4]dioxin-6-yl)-1-hydroxy-3-(pyrrolidin-1-yl)propan-2-yl)-2-(4-(pyridin-3-yl)phenyl)acetamide], the IC50 fell in the range of 0.1 to 1 µM.

Consider `O=C(CCCCCC(=O)c1ccc(Cl)cc1)N[C@H](CN1CCCC1)[C@H](O)c1ccc2c(c1)OCCO2` [Compound 159, 7-(4-chlorophenyl)-N-((1R,2R)-1-(2,3-dihydrobenzo[β][1,4]dioxin-6-yl)-1-hydroxy-3-(pyrrolidin-1-yl)propan-2-yl)-7-oxoheptanamide], for which the IC50 is ≤ 0.1 µM.

Take `O=C(NCc1ccc(Cl)cc1)N[C@H](CN1CCCC1)[C@H](O)c1ccc2c(c1)OCCO2` [Compound 43, 1-(4-chlorobenzyl)-3-((1R,2R)-1-(2,3-dihydrobenzo[β][1,4]dioxin-6-yl)-1-hydroxy-3-(pyrrolidin-1-yl)propan-2-yl)urea]: the IC50 is ≤ 0.1 µM.

For `C[C@H](NC(=O)N[C@H](CN1CCCC1)[C@H](O)c1ccc2c(c1)OCCO2)c1ccccc1` [Compound 10, 1-((1R,2R)-1-(2,3-dihydrobenzo[β][1,4]dioxin-6-yl)-1-hydroxy-3-(pyrrolidin-1-yl)propan-2-yl)-3-((S)-1-phenylethyl)urea], the IC50 fell in the range of 0.1 to 1 µM.

Take `COc1ccc(CNC(=O)N[C@H](CN2CCCC2)[C@H](O)c2ccc3c(c2)OCCO3)cc1` [Compound 41, 1-((1R,2R)-1-(2,3-dihydrobenzo[β][1,4]dioxin-6-yl)-1-hydroxy-3-(pyrrolidin-1-yl)propan-2-yl)-3-(4-methoxybenzyl)urea]: the IC50 is ≤ 0.1 µM.

Regarding `O=C(N[C@H](CN1CCCC1)[C@H](O)c1ccc2c(c1)OCCO2)C(=O)c1ccccc1` [Compound 31, N-((1R,2R)-1-(2,3-dihydrobenzoall [1,4]dioxin-6-yl)-1-hydroxy-3-(pyrrolidin-1-yl)propan-2-yl)-2-oxo-2-phenylacetamide], the IC50 lay within 0.1 to 1 µM.

Still in this experiment, the particulars now being: 48 h, Table 2; B16-FO cells, 2 days incubation; read-out: IC50_uM_Mean.
Turning to `CCCCCCCC(=O)N[C@H](CN1CCCC1)[C@H](O)c1cc(O)c2c(c1)OCCO2` [Compound 318], the IC50 lay in the range of 0.1 to 1 µM.

In the case of `Cc1ccc(C(=O)CCC(=O)N[C@H](CN2CCCC2)[C@H](O)c2ccc3c(c2)CCCC3)cc1` [Compound 264], the IC50 is ≤ 0.1 µM.

As for `COc1ccc([C@@H](OC(=O)CCOc2ccc(C)cc2)[C@@H](CN2CCCC2)NC(=O)CCOc2ccc(C)cc2)cc1` [Compound 248], the IC50 lay in the range of 0.1 to 1 µM.

Regarding `O=C(Cc1csc(-c2cccc(C(F)(F)F)c2)n1)N[C@H](CN1CCCC1)[C@H](OC(=O)Cc1csc(-c2cccc(C(F)(F)F)c2)n1)c1ccc2c(c1)OCCO2` [Compound 255], the IC50 fell in the range of 1 to 3 µM.

For the molecule `CC(C)Oc1ccc(C(=O)CCCCC(=O)N[C@H](CN2CCCC2)[C@H](O)c2ccc3c(c2)OCO3)cc1` [Compound 266], the IC50 was ≤ 0.1 µM.

Regarding `CCCCCCCC(=O)N[C@H](CN1C(C)CCC1C)[C@H](O)c1ccc2c(c1)OCCO2` (stereo partly shown) [Compound 314], the IC50 lay within 1 to 3 µM.

As for `COc1ccc(OCCC(=O)N[C@H](CN2CCOCC2)[C@H](O)c2ccc3c(c2)OCCO3)cc1` [Compound 257, N-((1R,2R)-1-(2,3-dihydrobenzo[β][1,4]dioxin-6-yl)-1-hydroxy-3-morpholinopropan-2-yl)-3-(4-methoxyphenoxy)propanamide], the IC50 fell in the range of 3 to 10 µM.

Turning to `CCCCCCCC(=O)N[C@H](CN1CCCC1)[C@H](O)CCCCCCC` [Compound 311], the IC50 fell in the range of 1 to 3 µM.

Staying with this experiment, now noted: Table 3 (IC 50 Values); B16-FO cells; read-out: IC50_uM_Mean.
Consider `COc1ccc(C(=O)CCCCCC(=O)N[C@H](CN2CC[C@@H](F)C2)[C@H](O)c2ccc3c(c2)OCCO3)cc1` [Compound 531], for which the IC50 was ≤ 0.1 µM.

In the case of `CCCCCCCC(=O)N[C@H](CN1C2CCC1CC2)[C@H](O)c1ccc2c(c1)OCCO2` [Compound 524], the IC50 was in the range of 0.1 to 1 µM.

Regarding `COc1ccc([C@@H](O)[C@@H](CO)NC(=O)OCc2ccccc2)c(OC)c1` [Compound 352], the IC50 was 3 to 10 µM.

`COc1ccc(C(=O)CCCCC(=O)N[C@H](CN2CCCC2)[C@H](O)c2sccc2C)cc1` [Compound 362]: the IC50 lay in the range of 3 to 10 µM.

With `COc1ccc(OCCC(=O)N[C@H](CN2CC(F)(F)C2)[C@H](O)c2ccc3c(c2)OCCO3)cc1` [Compound 622], the IC50 fell in the range of 3 to 10 µM.

Regarding `O=C(CCCCS(=O)(=O)C12CC3CC(CC(C3)C1)C2)N[C@H](CN1CCCC1)[C@H](O)c1ccc2c(c1)OCCO2` [Compound 560], the IC50 lay within 0.1 to 1 µM.

Regarding `O=C(CCC1CCOCC1)N[C@H](CN1CCCC1)[C@H](O)c1ccc2c(c1)OCCO2` [Compound 582], the IC50 was in the range of 3 to 10 µM.

`COCCc1ccc([C@@H](O)[C@@H](CN2CCCC2)NC(=O)CCCCC(=O)c2ccc(OC)cc2)cc1` [Compound 357]: the IC50 is 0.1 to 1 µM.

Turning to `COc1ccc(CCOc2ccc([C@@H](O)[C@@H](CN3CCCC3)NC(=O)CCCCC(=O)c3ccc(OC)cc3)cc2)cc1` [Compound 440], the IC50 was ≤ 0.1 µM.

On to `CCCCC(=O)CCCCCCC(=O)N[C@H](CN1CCCC1)[C@H](O)c1ccc2c(c1)OCCO2` [Compound 663], for which the IC50 was 0.1 to 1 µM.

As to `O=C(CCCCCC(=O)c1ccc(F)cc1)N[C@H](CN1CCCC1)[C@H](O)c1ccc2c(c1)OCCO2` [Compound 628], the IC50 was ≤ 0.1 µM.

With `CC(=O)c1ccc(OCCCC(=O)N[C@H](CN2CCCC2)[C@H](O)c2ccc(OC(C)C)cc2)cc1` [Compound 724], the IC50 was in the range of 0.1 to 1 µM.

On to `O=C(CCCCC(=O)C1CCOCC1)N[C@H](CN1CC[C@@H](F)C1)[C@H](O)c1ccc(OCc2ccccc2)cc1` [Compound 576], for which the IC50 is 0.1 to 1 µM.

With `CCCN(C)C[C@H](NC(=O)CCCCCC(=O)c1ccc(OC)cc1)[C@@H](O)c1ccc2c(c1)OCCO2` [Compound 470], the IC50 was 0.1 to 1 µM.

For `COc1ccc(C(=O)CCCCCC(=O)N[C@H](CCN2CCCC2)[C@H](O)c2ccc3c(c2)OCCO3)cc1` [Compound 688], the IC50 was 3 to 10 µM.

For the molecule `COc1ccc(OCCC(=O)N[C@H](CN2CC[C@@H](F)C2)[C@H](O)c2ccc(OC(C)C)cc2)cc1` [Compound 452], the IC50 was 0.1 to 1 µM.

Consider `CC1CCN(C[C@@H](NC(=O)CCCCCC(=O)c2ccccc2)[C@H](O)c2ccc3c(c2)OCCO3)CC1` [Compound 612], for which the IC50 fell in the range of 3 to 10 µM.

As to `COc1ccc(C(=O)CCCCC(=O)N[C@H](CN2C3CCC2CC3)[C@H](O)c2ccc(OC(C)C)cc2)cc1` [Compound 376], the IC50 was ≤ 0.1 µM.

On to `COc1ccc([C@@H](O)[C@@H](CN2CCCC2)NC(=O)CCCCCC(C)=O)cc1` [Compound 664], for which the IC50 is 1 to 3 µM.

`COc1ccc(C(=O)CCCCC(=O)N[C@H](CN2CCCC2)[C@H](O)c2ccc(Cl)s2)cc1` [Compound 494]: the IC50 was 0.1 to 1 µM.

As for `CCCCN(CCCC)C[C@@H](NC(=O)CCCCCC(=O)c1ccc(OC)cc1)C(O)c1ccc2c(c1)OCCO2` (stereo partly shown) [Compound 459], the IC50 was 3 to 10 µM.

With `COc1ccc(OCCC(=O)N(Cc2nc3ccccc3s2)[C@H](CN2CCCC2)[C@H](O)c2ccc(O)cc2)cc1` [Compound 717], the IC50 lay in the range of 3 to 10 µM.

`COc1ccc(OCCC(=O)N[C@H](CN2CCCC2)[C@H](O)c2ccc(OC)c(C)c2)cc1` [Compound 391]: the IC50 lay within 0.1 to 1 µM.

Turning to `CCCCCCCC(=O)N[C@H](CN1CC2CC2C1)[C@H](O)c1ccc2c(c1)OCCO2` (stereo partly shown) [Compound 517], the IC50 is 0.1 to 1 µM.

Take `COc1ccc(C(=O)CCCCC(=O)N[C@H](CN2CCCC2)[C@H](O)c2ccc(OCCCOc3ccccc3F)cc2)cc1` [Compound 367]: the IC50 was ≤ 0.1 µM.

For `O=C1CCC(=O)N1[C@H](CN1CCCC1)[C@H](O)c1ccc2c(c1)OCCO2` [Compound 670], the IC50 was in the range of 3 to 10 µM.

`COc1ccc(OCCC(=O)N(CC(=O)c2ccc(OC)cc2)[C@H](CN2CCCC2)[C@H](O)c2ccc(O)cc2)cc1` [Compound 715]: the IC50 is 3 to 10 µM.

Consider `COc1ccc([C@@H](O)[C@@H](CN2CCCC2)NC(=O)Cc2ccc(OC(F)(F)F)cc2)cc1F` [Compound 342], for which the IC50 was in the range of 0.1 to 1 µM.

As to `O=C(N[C@H](CN1CCCC1)[C@H](O)c1ccc2c(c1)OCCO2)C1CCOCC1` [Compound 579], the IC50 fell in the range of 3 to 10 µM.

In the case of `COc1ccc(C(=O)CCCCCC(=O)N[C@@H](CN(C)C(C)C)[C@@H](O)c2ccc3c(c2)OCCO3)cc1` [Compound 468], the IC50 was ≤ 0.1 µM.

With `O=C(CCC12CC3CC(CC(C3)C1)C2)N[C@H](CN1CCCC1)[C@H](O)c1ccc2c(c1)OCCO2` [Compound 637], the IC50 was 0.1 to 1 µM.

Regarding `O=C(CCCCCN1Cc2ccccc2C1=O)N[C@H](CN1CCCC1)[C@H](O)c1ccc2c(c1)OCCO2` [Compound 486], the IC50 is 1 to 3 µM.

For the molecule `COc1ccc(C(=O)CCCCCC(=O)N[C@H](CN2CCCC2)[C@H](O)c2ccc(C(F)(F)F)cc2)cc1` [Compound 484], the IC50 was 1 to 3 µM.

On to `O=C(CCCCC1CCOCC1)N[C@H](CN1CCCC1)[C@H](O)c1ccc2c(c1)OCCO2` [Compound 581], for which the IC50 was 0.1 to 1 µM.

Regarding `O=C(CCCCCC1CCOCC1)N[C@H](CN1CC[C@@H](F)C1)C(O)c1cccc(OCc2ccccc2)c1` (stereo partly shown) [Compound 574], the IC50 fell in the range of 0.1 to 1 µM.

As for `O=C(CCCCCCOCC(F)(F)F)N[C@H](CN1CCCC1)[C@H](O)c1ccc2c(c1)OCCO2` [Compound 634], the IC50 lay within 0.1 to 1 µM.
